Experimental data taken from the PolyMetriX glass transition set.
± gives the standard deviation of the reports.

Row | SMILES | glass transition temperature [°C]
1 | *c1ccc2c(c1)C(=O)N(c1c(C(C)C)cc(C(c3ccccc3)(c3cc(C(C)C)c(N4C(=O)c5ccc(C(*)(C(F)(F)F)C(F)(F)F)cc5C4=O)c(C(C)C)c3)C(F)(F)F)cc1C(C)C)C2=O (repeat unit) | 274.00
2 | *OP(=O)(Oc1ccccc1)Oc1ccc(-c2ccc(*)cc2)cc1 (repeat unit) | 112.00
3 | *c1cccc(N2C(=O)c3ccc(Oc4ccc5c(c4)C(=O)N(*)C5=O)cc3C2=O)c1 (repeat unit) | 270.50 ± 13
4 | *O[Si](*)(C)CCC(F)(F)F (repeat unit) | -69.00
5 | *CC(*)OC(=O)C(F)(F)C(F)(F)C(F)(F)C(F)(F)C(F)(F)C(F)(F)C(F)(F)F (repeat unit) | -10.00
6 | *C(=O)c1ccc2c(c1)C(=O)N(c1cc(Br)c(Oc3c(Br)cc(N4C(=O)c5ccc(*)cc5C4=O)cc3Br)c(Br)c1)C2=O (repeat unit) | 323.00
7 | *c1cc(OCCCC)c(*)cc1OCCCC (repeat unit) | 37.00
8 | *CC(SS*)c1ccccc1 (repeat unit) | 4.80
9 | *C(=O)Nc1ccc(Oc2ccc(C3(c4ccc(Oc5ccc(NC(=O)c6ccc7c(c6)C(=O)N(c6ccc(C)c(N8C(=O)c9ccc(*)cc9C8=O)c6)C7=O)cc5)cc4)NC(=O)c4ccccc43)cc2)cc1 (repeat unit) | 315.00
10 | *c1ccc(Oc2cccc(NC(=O)c3cc(C(=O)Nc4cccc(Oc5ccc(-c6nnc(*)o6)cc5)c4)cc(N4C(=O)c5c(Cl)c(Cl)c(Cl)c(Cl)c5C4=O)c3)c2)cc1 (repeat unit) | 275.00
11 | *CC(*)C(=O)Oc1ccccc1 (repeat unit) | 60.00
12 | *Oc1ccc(-c2ccc(Oc3c(F)c(F)c(COC(c4cccc(C(OCc5c(F)c(F)c(*)c(F)c5F)(C(F)(F)F)C(F)(F)F)c4)(C(F)(F)F)C(F)(F)F)c(F)c3F)cc2)cc1 (repeat unit) | 110.00
13 | *OC(=O)c1ccc(C(=O)OC2COC3C(*)COC23)o1 (repeat unit) | 192.50
14 | */C=C/C1CC(*)C([Si](C)(C)C)C1 (repeat unit) | 113.00
15 | *C(=O)c1ccc2c(c1)C(=O)N(c1ccc(-c3cc(C(C)(C)C)c(Oc4ccc(N5C(=O)c6ccc(*)cc6C5=O)cc4C(F)(F)F)c(C(C)(C)C)c3)cc1)C2=O (repeat unit) | 362.00
16 | *CCCCCCOC(=O)Nc1cccc(P(=O)(c2ccccc2)c2cccc(NC(=O)O*)c2)c1 (repeat unit) | 30.00
17 | *OC(=O)OCC(O)C(O)COC(=O)OC1COC2C(*)COC12 (repeat unit) | 78.50
18 | *c1ccc2c(c1)C(=O)N(c1ccc(Oc3ccc(N4C(=O)c5ccc(C(F)(F)C(F)(F)C(F)(F)C(F)(F)C(F)(F)C(F)(F)C(F)(F)C(*)(F)F)cc5C4=O)cc3)cc1)C2=O (repeat unit) | 186.00
19 | *CC(O)CO* (repeat unit) | 17.00
20 | *Oc1c(-c2ccccc2)cc(-c2cc(-c3ccccc3)c(OC(=O)CCCCCCCCC(*)=O)c(-c3ccccc3)c2)cc1-c1ccccc1 (repeat unit) | 98.00
21 | *CCCC1(C)CCN(C(=O)CC(C)C(=O)N2CCC(*)(C)CC2)CC1 (repeat unit) | 72.00
22 | *C(=O)c1ccc2c(c1)C(=O)N(c1cccc(C(c3ccccc3)(c3cccc(N4C(=O)c5ccc(*)cc5C4=O)c3)C(F)(F)F)c1)C2=O (repeat unit) | 311.00
23 | *CC(*)(C)c1ccc2ccccc2n1 (repeat unit) | 193.00

Further lines, results first:

Row | glass transition temperature [°C] | SMILES
24 | 223.00 | */C(=C/c1cc(OC)c(/C=C(\c2ccccc2)c2ccc(-c3ccc(*)cc3)cc2)cc1OC)c1ccccc1 (repeat unit)
25 | 105.50 | *Oc1ccc(OC(=O)c2ccc(OCCCCCCOc3ccc(C(*)=O)cc3)cc2)cc1S(=O)(=O)c1ccccc1 (repeat unit)
26 | 273.00 | *Oc1ccc(NC(=O)c2cc(NC(=O)c3ccc(OC(C)=O)cc3)cc(C(=O)Nc3ccc(*)cc3)c2)cc1 (repeat unit)
27 | 66.00 | *Oc1ccc(CC(NC(=O)CCc2ccc(OC(=O)CCCC(*)=O)cc2)C(=O)OCc2ccccc2)cc1 (repeat unit)
28 | 263.00 | *Oc1ccc(S(=O)(=O)c2ccc(Oc3ccc(NC(=O)c4cc(NC(=O)c5ccc(OC(C)=O)cc5)cc(C(=O)Nc5ccc(*)cc5)c4)cc3)cc2)cc1 (repeat unit)
29 | 76.00 | *Oc1ccc(CC(NC(=O)CCc2ccc(OC(=O)CCCC(*)=O)cc2)C(=O)OC)cc1 (repeat unit)
30 | 115.00 | *OC(=O)Oc1ccc(C(=O)Oc2ccc(OC(=O)OC3COC4C(*)COC34)cc2)cc1 (repeat unit)
31 | 265.50 | *C(=O)c1ccc2c(c1)C(=O)N(c1cccc(Cc3ccc(C(=O)c4cccc(N5C(=O)c6ccc(*)cc6C5=O)c4)cc3)c1)C2=O (repeat unit)
32 | 218.00 | *c1ccc(Sc2ccc(Sc3ccc(N4C(=O)c5ccc(Oc6ccc7c(c6)C(=O)N(*)C7=O)cc5C4=O)cc3)s2)cc1 (repeat unit)
33 | 30.00 | *CC(O)COC(=O)CCCCCCCCC(=O)OCC(O)COc1ccc(/C=C(\C)c2ccc(O*)cc2)cc1 (repeat unit)
34 | 54.00 | *CC(*)(C)C(=O)OCCCCCCCCCCOc1ccc(/N=N/c2ccc(Cl)cc2)cc1 (repeat unit)
35 | 83.00 | *CCOC(=O)c1ccc(C(=O)OCCOc2ccc(C(C)(C)c3ccc(O*)cc3)cc2)cc1 (repeat unit)
36 | 187.50 | *c1ccc2c(c1)C(=O)N(c1ccc(OCCOCCOc3ccc(N4C(=O)c5ccc(C(*)(C(F)(F)F)C(F)(F)F)cc5C4=O)cc3)cc1)C2=O (repeat unit)
37 | 72.00 | *CC(*)(C)C(=O)OCCCCCCCCCCOc1ccc(C(=O)Oc2ccc(C(=O)/C=C/c3c(C)c4ccccc4n3C)cc2)cc1 (repeat unit)
38 | 144.00 | *Oc1ccc(C2(c3ccc(Oc4ccc(C(=O)Oc5ccc(C(C)(C)c6ccc(OC(=O)c7ccc(*)cc7)cc6)cc5)cc4)cc3)CCC(C(C)(C)C)CC2)cc1 (repeat unit)
39 | 133.00 | *OS(=O)(=O)c1cccc(C(=O)Oc2ccc(C(C)(C)c3ccc(*)cc3)cc2)c1 (repeat unit)
40 | 192.00 | *c1ccc(Oc2ccc(C(C)(C)c3ccc(Oc4ccc(N5C(=O)c6ccc(Oc7ccccc7Oc7ccc8c(c7)C(=O)N(*)C8=O)cc6C5=O)cc4C(F)(F)F)cc3)cc2)c(C(F)(F)F)c1 (repeat unit)
41 | 122.00 | *CCCCCCCCOc1cccc(NC(=O)c2ccc(C(=O)Nc3cccc(O*)c3)cc2)c1 (repeat unit)
42 | 220.00 | *C(=O)c1ccc(Oc2ccc(Oc3ccc(C(=O)c4ccc5c(c4)C(=O)N(c4ccc(Oc6ccc(N7C(=O)c8ccc(*)cc8C7=O)cc6)cc4)C5=O)cc3)cc2)cc1 (repeat unit)
43 | 277.00 | *c1ccc(Oc2ccc(S(=O)(=O)c3ccc(Oc4ccc(-c5nc(-c6ccccc6)[nH]c5*)cc4)cc3)cc2)cc1 (repeat unit)
44 | 208.60 | *c1ccc(Oc2ccc(C(=O)c3cccc(C(=O)c4ccc(Oc5ccc(N6C(=O)c7ccc(Oc8ccc9c(c8)C(=O)N(*)C9=O)cc7C6=O)cc5)cc4)n3)cc2)cc1 (repeat unit)
